Measurements published in article PMC7144934, “Design, Synthesis and Biological Evaluation of Phenyl Urea Derivatives as IDO1 Inhibitors” (Molecules, 2020).
“Also recorded” adds a separate entry of the source. Like-named read-outs stand apart in the source and are kept apart here. Values belong to the molecule of their own block, whether it stands above or below them.

Key:
IDO1 = system: IDO1; design: method as in PMID 30760888; conditions: Figure 1; cited from earlier work
[1] = molecular target: T1, Recombinant human IDO1 (rhIDO1) (Homo sapiens, UniProt P14902); assay: Enzyme assay for IDO1 inhibition; assay type: biochemical; conditions: for IC50 / IDO1 inhibitory activity (in words): rhIDO1 enzyme assay; for IC50: 37 °C, 45 min
T1 construct: made in house
T1 sequence (P14902 whole entry): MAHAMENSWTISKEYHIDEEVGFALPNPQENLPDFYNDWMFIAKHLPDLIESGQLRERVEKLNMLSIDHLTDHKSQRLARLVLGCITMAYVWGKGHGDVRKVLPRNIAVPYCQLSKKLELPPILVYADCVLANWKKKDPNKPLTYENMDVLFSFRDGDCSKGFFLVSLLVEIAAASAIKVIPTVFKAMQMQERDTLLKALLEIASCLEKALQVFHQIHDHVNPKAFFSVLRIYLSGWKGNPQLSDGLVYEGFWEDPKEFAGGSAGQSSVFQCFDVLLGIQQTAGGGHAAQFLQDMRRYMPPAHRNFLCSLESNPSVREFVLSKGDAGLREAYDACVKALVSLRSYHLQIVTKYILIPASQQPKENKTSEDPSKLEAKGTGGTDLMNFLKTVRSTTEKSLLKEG

[2] = molecular target: T2, Recombinant human TDO (rhTDO) (Homo sapiens, UniProt P48775); assay: Enzyme assay for TDO inhibition; assay type: biochemical; conditions: 37 °C, 45 min
T2 construct: made in house
T2 sequence (P48775 whole entry): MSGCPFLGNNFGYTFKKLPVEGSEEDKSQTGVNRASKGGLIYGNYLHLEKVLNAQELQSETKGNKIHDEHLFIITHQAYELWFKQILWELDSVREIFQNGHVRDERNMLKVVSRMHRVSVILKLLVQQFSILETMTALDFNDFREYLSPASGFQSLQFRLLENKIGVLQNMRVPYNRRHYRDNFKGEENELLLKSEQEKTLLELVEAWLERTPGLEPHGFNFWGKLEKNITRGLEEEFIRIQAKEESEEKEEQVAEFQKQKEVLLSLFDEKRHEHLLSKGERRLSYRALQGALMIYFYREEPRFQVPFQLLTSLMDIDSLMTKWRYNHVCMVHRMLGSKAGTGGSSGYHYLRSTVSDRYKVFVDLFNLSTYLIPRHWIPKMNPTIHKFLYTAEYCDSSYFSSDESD
Description: Recombinant human IDO1 and TDO were expressed and purified according to the reported procedures. The assay was performed according to the literature: A standard reaction mixture (100 µL) containing 100 mM potassium phosphate buffer (pH 6.5), 40 mM ascorbic acid (neutralized with NaOH), 200 µg/mL catalase, 20 µM methylene blue and 0.05 µM rhIDO1 or rhTDO was added to the solution containing the substrate L-tryptophan and the test sample at a determined concentration. The reaction was carried out at 37 °C for 45 min and stopped by adding 20 µL of 30% (w/v) trichloroacetic acid. After heating at 65 °C for 15 min, 100 µL of 2% (w/v) p-dimethylaminobenzaldehyde in acetic acid was added to each well. The yellow pigment derived from kynurenine was measured at 492 nm using a SYNERGY-H1 microplate reader (Biotek Instruments, Inc., Winooski, VT, USA). IC50 was analyzed using the GraphPad Prism 8.0 software (GraphPad Software, San Diego, CA, USA).

human IDO1 = system: human IDO1; design: method as in earlier work; conditions: human IDO1/HEK 293 cells; read-out: IDO1 inhibitory activity IC50; cited from earlier work
[3] = Single dose pharmacokinetic study in male C57BL/6 mice; assay type: in vivo; conditions: for AUC(0-inf): male, C57BL/6, mouse; for MRT inf: read-out: MRT(0–∞); for half-life: read-out: t1/2β (converted)
Description: The animal Care and Welfare Committee of Institute of Materia Medica, Chinese Academy of Medical Sciences approved all animal care, housing, and laboratory procedures. Male C57BL/6 mice were used in the single dose pharmacokinetic studies. Compound i12 was prepared as a 3 mg/mL suspension with 0.5% CMC for oral use and was formulated as a 3 mg/mL solution with 10% DMSO in 20% HP-β-CD for intravenous injection. Sixteen mice were divided into two groups, 10 in the oral group and six in the intravenous group. After fasting 12 h with free access to water, mice were treated with a 3 mg/kg i.v. or 30 mg/kg oral dose of compound i12. Blood samples (50 µL) were collected at 5, 15, 30 min, 1, 2, 4, 6, 8, 12 and 24 h after oral administration and 2, 5, 15, 30 min, 1, 2, 4, 6, 8, 12 and 24 h after intravenous injection. After centrifugation, the plasma samples (20 µL) were precipitated by four volumes of acetonitrile. The supernatant were analyzed by liquid chromatography/tandem mass spectrometry with a Zorbax C18 column (50 mm × 2.1 mm, 3.5 µm). Compound detection was performed with the mass spectrometer in positive ionization mode by t-SIM: m/z 489.209 for compound i12. The pharmacokinetic parameters were calculated with WinNonlin software V6.3 using non-compartmental analysis (Pharsight Corporation, Mountain View, CA, USA).

[4] = system: mouse pancreatic cancer cells PAN02; assay: PAN02 pancreatic cancer subcutaneous xenograft model; assay type: in vivo, mice
Description: (§1) The mouse pancreatic cancer cells PAN02 were cultured and harvested in saline at 6 × 10^6 cells/0.2 mL volume. Cells (0.2 mL) were injected subcutaneously into male C57BL/6 mice at day 0 of the experiment, and treatment was initiated at day 1 following the mice enrolled randomly in control and experimental groups. For control group, 0.5% CMCNa was orally administered every day. The CTX group were administered CTX intraperitoneally at the dose of 60 mg/kg Compound i12 was dissolved in 0.5% CMC-Na for oral treatment. After 15 days, the mice were sacrificed and the tumors were stripped and weighted. The tumor growth inhibition (TGI) was calculated as TGI = (1 − tumor weight treatment/tumor weight vehicle) × 100%. The statistical analysis was performed with GraphPad Prism 8.0 software and the significance level was evaluated with one-way ANOVA model.

[5] = system: mouse melanoma cells B16F10; assay: B16F10 subcutaneous xenograft model; assay type: in vivo, mice
Description: as §1, with “melanoma” for “pancreatic cancer”, “B16F10” for “PAN02”, “100 mg/kg.” for “60 mg/kg”, “17” for “15”

pathway = system: pathway; design: method as in PMID 30760888; conditions: Figure 1; cited from earlier work

SMILES: C[C@@H](C(=O)Nc1ccc(Cl)cc1)C1CCC(c2ccnc3ccc(F)cc23)CC1 (some centres unmarked) [BMS-986205]
- IC50 (IDO1): 1.7 nM

SMILES: Cn1cc(C[C@@H](N)C(=O)O)c2ccccc21 [indoximod]
- IC50 (pathway): 450 nM

Continued, in another order:

- IC50 [1]: 8.57 µM
- IC50 [2]: > 100 µM
SMILES: CC(C)CN(CC(C)C)c1ccc(C(CC(=O)O)C(F)(F)F)cc1NC(=O)Nc1ccc(F)cc1F (centres unmarked) [BMS-E30, reference compound]
- IC50 (human IDO1): 0.7 nM

- IC50 [1]: 34.1 µM
- melting point: 94.1 to 95.7 °C
- IC50 [2]: > 100 µM
SMILES: CC1CC(C)CN(c2ccc(C(CC(=O)O)C(F)(F)F)cc2NC(=O)Nc2ccccc2)C1 (centres unmarked) [i1, 3-[4-(3,5-dimethylpiperidin-1-yl)-3-(3-phenylureido)-phenyl]-4,4,4-trifluorobutyric Acid]

- AUC(0–∞) ([3]; PO 30 mg/kg, 30 mg/kg): 12,849 h·ng/mL
- AUC(0-inf) ([3]; plasma, iv, 3 mg/kg, IV 3 mg/kg): 2160 ng·h/mL
- AUC(0-inf) ([3]; plasma, po, 30 mg/kg, PO 30 mg/kg): 11500 ng·h/mL
- AUC(0-t) ([3]; mouse, plasma, IV 3 mg/kg): 1320 ng·h/mL
- Cmax ([3]; mouse, plasma, IV 3 mg/kg): 6960 ng/mL
- clearance ([3]; mouse, plasma, IV 3 mg/kg, read-out: Cl (plasma clearance)): 22.4 mL/min/kg
- MRT inf ([3]; mouse, plasma, IV 3 mg/kg): 8.6 h
- Vd ([3]; mouse, plasma, IV 3 mg/kg, read-out: Vss): 15.8 L/kg
- half-life ([3]; mouse, plasma, IV 3 mg/kg): 7.17 h
- AUC(0-t) ([3]; mouse, plasma, PO 30 mg/kg): 11500 ng·h/mL
- Cmax ([3]; mouse, plasma, PO 30 mg/kg): 2700 ng/mL
- Tmax ([3]; mouse, plasma, PO 30 mg/kg): 2 h
- bioavailability ([3]; mouse, plasma, PO 30 mg/kg vs IV 3 mg/kg, read-out: F% (oral bioavailability)): 87.4%
- MRT inf ([3]; mouse, plasma, PO 30 mg/kg): 8.18 h
- half-life ([3]; mouse, plasma, PO 30 mg/kg): 11.2 h
- fold improvement in IDO1 inhibitory activity compared to compound i1 ([1]; ratio of IDO1 enzyme IC50 values): 100 fold
- IC50 [1]: 0.331 µM
- IC50 [2]: > 100 µM
SMILES: CC1CC(C)CN(c2ccc(C(CC(=O)O)C(F)(F)F)cc2NC(=O)Nc2ccc(C#N)cc2)C1 (centres unmarked) [i12, 3-[3-[3-(4-cyanophenyl)ureido]-4-(3,5-dimethylpiperidin-1-yl)-phenyl]-4,4,4-trifluorobutyric Acid]
- IDO1 inhibitory activity (in words) [1]: more potent IDO1 inhibitory activity than the unsubstituted i1
- tumor growth inhibition (TGI) ([4]; 30 mg/kg daily, oral, 15 days, tumor weight): 34.3%
- body weight of each group after the treatment ([4]; i12 orally 10, 30 or 100 mg/kg, PAN02 xenograft mice): no obvious body weight difference
- tumor growth inhibition (TGI) ([5]; 15 mg/kg daily, oral, 17 days, tumor weight): 40.5%
- body weight compared with the control group ([5]; i12 orally 15, 30 or 100 mg/kg, B16F10 xenograft mice): no obvious body weight difference; also recorded: no obvious reduction; also recorded: no significant changes

- IDO1 inhibitory activity (in words) [1]: no inhibitory activity
- IC50 [1]: > 100 µM
- IC50 [2]: > 100 µM
SMILES: CC1CC(C)CN(c2ccc(C(CC(=O)O)C(F)(F)F)cc2NC(=O)Cc2ccc([N+](=O)[O-])cc2)C1 (centres unmarked) [j3, 3-{4-(3,5-dimethylpiperidin-1-yl)-3-[2-(4-nitrophenyl)acetylamino]-phenyl}-4,4,4-trifluorobutyric Acid]
